Measurements from US20100292200A1, “Methods for Modulating Apoptosis in Platelets” (The Walter and Eliza Hall Institute of Medical Research, priority 2006, published 2010).
Entries after “also recorded” stand apart in the source; their conditions may differ.

Assays:
[1] = system: human platelet rich plasma; assay: Platelet aggregometry on human platelet rich plasma; type: cell-based
Protocol: Platelet aggregometry performed on human platelet rich plasma (250×10^9/L platelets) pre-incubated for 1 h with 1 μM ABT-737 (green line) or not (red) before stimulation with (A) collagen (4 μg/ml) or (B) ADP (10 μM).
Whole blood was collected in sodium citrate (3.2%) and platelet rich plasma obtained by centrifugation at 800 rpm for 12 min at room temperature. Platelet poor plasma was then obtained by centrifugation of remaining blood at 3,000 rpm for 15 min at room temperature. Platelet count was adjusted to 250×10^9/L using platelet poor plasma. Diluted platelet rich plasma was placed in an aggregometer cuvette warmed to 37° C. and stirred whilst light transmission through the plasma was measured in a 4 channel platelet aggregometer. After baseline measurements were obtained, ADP or Collagen (both from Edward Keller) was added to induce aggregation.

[2] = system: cells from the bone marrow of C57BL/6 mice; assay: formation of hematopoietic progenitors in vitro (soft agar colony cultures); type: cell-based, mouse
Protocol: Cells (25,000) from the bone marrow of C57BL/6 mice were cultured in soft agar with G-CSF, IL-3 and EPO for 7 r d, stained and counted. Saline or ABT-737 was added on days 1, 3 and 5. […] G, granulocyte colony; GM, granulocyte/macrophage colony; M, macrophage colony; EO, eosinophil colony; Meg, megakaryocyte colony. Total colony counts are the means of two cultures; megakaryocyte colony counts represent the means±SD of four indepdendent cultures.
(§1) The hematocrit, platelet and white cell count, and differential were determined by using either manual or automated (Advia 120) counting techniques. In most experiments, with the exception of data shown in FIGS. 1A and 6E, the data was collected from male mice. Clonal cultures of 2.5×10^4 adult bone marrow cells or 5×10^4 spleen cells in 1 mL of 0.3% agar in DMEM supplemented with newborn calf serum (20%) were stimulated with a mixture of 100 ng/mL murine stem cell factor, 10 ng/mL murine IL-3, 4 units/mL human EPO and incubated for 7 days at 37° C. in a fully humidified atmosphere of 10% CO2 in air. Agar cultures were fixed, sequentially stained for acetylcholinesterase, Luxol fast blue and hematoxylin; the cellular composition of each colony determined at ×100-400 magnification. Megakaryocyte counts were performed by manual counting from sections of sternum and spleen after staining with hematoxylin/eosin. A minimum of 10 high-power fields (×200) were scored.

[3] = system: Bcl-2, Bcl-xL, Bcl-w, Mcl-1, A1; details: Oltersdorf et al., 2005; van Delft et al., 2006; cited from earlier work
megakaryocytes = details: mouse, in vivo
Protocol: as §1

platelets = assay: ABT-737 administration to mice, peripheral blood platelet counts; type: in vivo, mouse
Protocol: Animals were bled 2-24 h afterwards and platelet counts determined. […] Platelet counts (blue symbols; left axis) were determined 2-96 h after a single dose of ABT-737 (red arrow). […] Orange symbols represent serum TPO levels (right axis). […] Platelet counts were determined before and 8 h after a single dose of ABT-737 (red arrows) given at weekly intervals. […] (E) Synchronizing platelets. […] Wild type C57BL/6 mice were treated with APS, and then injected with ABT-737 (red arrows) either 2 or 7 days afterwards. Absolute platelet counts and the % of reticulated platelets were measured. The top panels show representative flow cytometric profiles following thiazole orange staining before or after ABT-737 injections. The bottom panels show platelet counts prior to or 2 h post ABT-737 injection. Data in (B), (C), (E) and (F) represent means±SD of 3-6 mice at each time point. […]
as §1
Mice were injected intra-peritoneally with 75 mg/kg of ABT-737 given as a single dose or daily. A stock solution of ABT-737 (1 g/mL in DMSO) was diluted in a mixture of 30% propylene glycol, 5% Tween 80, 65% D5W (5% dextrose in water), pH 4-5; the final concentration of DMSO was less than 1%.

reticulated platelets = assay: Reticulated platelet labeling (thiazole orange) after ABT-737; type: in vivo, mouse; details: thiazole orange staining after a single dose
Protocol: Animals were bled 2-24 h afterwards and platelet counts determined. […] (B) Platelet recovery after a single dose of ABT-737. Platelet counts (blue symbols; left axis) were determined 2-96 h after a single dose of ABT-737 (red arrow). […] Orange symbols represent serum TPO levels (right axis). (C) Cyclical acute thrombocytopaenia triggered by ABT-737. Platelet counts were determined before and 8 h after a single dose of ABT-737 (red arrows) given at weekly intervals. […] During recovery, baseline counts drifted upwards. (D) ABT-737 acts selectively on aged platelets. […] (E) Synchronizing platelets. […] During recovery, the newly synthesized younger platelets are larger as indicated by the increased mean platelet volume (blue symbols; right axis). (F) Young platelets are resistant to ABT-737. Wild type C57BL/6 mice were treated with APS, and then injected with ABT-737 (red arrows) either 2 or 7 days afterwards. Absolute platelet counts and the % of reticulated platelets were measured. The top panels show representative flow cytometric profiles following thiazole orange staining before or after ABT-737 injections. The bottom panels show platelet counts prior to or 2 h post ABT-737 injection. Data in (B), (C), (E) and (F) represent means±SD of 3-6 mice at each time point.
Staining of reticulated platelets was performed using thiazole orange. […]

[4] = ABT-737 1 μM added on days 1, 3 and 5, 25,000 bone marrow cells, 7 d, mean of two cultures
[5] = progenitor cell cultures in vitro

SMILES: CN(C)CC[C@H](CSc1ccccc1)Nc1ccc(S(=O)(=O)NC(=O)c2ccc(N3CCN(Cc4ccccc4-c4ccc(Cl)cc4)CC3)cc2)cc1[N+](=O)[O-] [ABT-737]
- responses to other agonists (Epinephrine, Arachidonic Acid, Ristocetin) ([1]; 1 μM ABT-737 (data not shown)): did not alter responses
- platelet activation / aggregation in response to collagen or ADP ([1]; pre-incubated 1 h with 1 μM ABT-737, collagen 4 μg/ml or ADP 10 μM): did not trigger platelet activation or adversely impact upon the ability of platelets to aggregate; also recorded: did not induce platelet aggregation or affect that with agonists
- Blast colonies [2, 4]: 16
- Eo, eosinophil colony [2, 4]: 1
- G, granulocyte colony [2, 4]: 14
- GM, granulocyte/macrophage colony [2, 4]: 6
- M, macrophage colony [2, 4]: 14
- Meg, megakaryocyte colony ([2]; ABT-737 1 μM added on days 1, 3 and 5, 25,000 bone marrow cells, 7 d, means±SD of four independent cultures): 14 ± 6
- effect on formation of other colonies [2, 5]: unaffected
- effect on megakaryocyte colony formation [2, 5]: no effect; also recorded: minor effect
- selectivity among pro-survival Bcl-2 family proteins [3]: selectively targets Bcl-2, Bcl-xL and Bcl-w but not the other pro-survival proteins Mcl-1 or A1
- megakaryocytopoiesis in ABT-737 treated mice (megakaryocytes): normal, or probably even elevated
- effect of ABT-737 on newly synthesized young platelets (platelets; ABT-737 injected 2 days post-APS, counts 2 h post injection): highly resistant
- effect of ABT-737 on aged platelets (platelets; ABT-737 injected 7 days post APS, counts 2 h post injection): susceptible
- effect of ABT-737 on platelets in Bak^-/- Bax^+/- mice (platelets; Bak^-/- Bax^+/- mice, single dose 75 mg/kg, 0-24 h, 75 mg/kg): entirely refractory; also recorded: enthely refractory; also recorded: completely protected
- effect of ABT-737 on platelet counts in Bak^-/- mice (platelets; Bak^-/- mice, single dose 75 mg/kg, 0-24 h, 75 mg/kg): significantly buffered; also recorded: unaffected by ABT-737 at early time points (up to 4 h)
- impact of loss of Bax alone on the effect of ABT-737 (platelets; Bax-deficient mice (data not shown)): little impact
- ABT-737-induced thrombocytopaenia in Bcl-x^+/- mice (platelets; Bcl-x^+/- vs wild type and Bcl-2^+/- mice, single dose 75 mg/kg, 2-24 h, 75 mg/kg): exacerbates
- platelet levels during continued daily ABT-737 (platelets; daily injections continued for 14 days): 60-70 % of normal
- platelet counts with weekly ABT-737 (platelets; single dose given at weekly intervals, counts before and 8 h after): acute thrombocytopaenia ensued in a cyclical manner; also recorded: comparable drop in platelets each time
- dose dependence of thrombocytopaenia (platelets; wild type C57BL/6 mice (data not shown)): dose dependent
- platelet counts after recovery from a single dose (platelets; wild type C57BL/6 mice, 2-96 h after a single dose): rebound thrombocytosis by day 4
- time for platelet counts to recover to normal levels (platelets; wild type C57BL/6 mice, after a single dose): ≤ 3 days
- proportion of reticulated platelets post ABT-737 (reticulated platelets): transient increase; also recorded: increased proportion
